In paper PMC8270315, “Combination of Heme Oxygenase-1 Inhibition and Sigma Receptor Modulation for Anticancer Activity” (Molecules, 2021):
Like-named read-outs stand apart in the source and are kept apart here.

Tests used:
HO-1 = target: T1, HO-1 (Rattus norvegicus, UniProt P06762); assay: HO-1 inhibition, bilirubin formation in rat spleen microsomal fraction; type: biochemical; settings: Table S1
T1 construct: selected in order to use the most native (i.e., closest to in vivo) forms of HO-1; from tissue; host or cells: spleen microsomal fraction of male Sprague-Dawley rats
T1 sequence (P06762 1-289): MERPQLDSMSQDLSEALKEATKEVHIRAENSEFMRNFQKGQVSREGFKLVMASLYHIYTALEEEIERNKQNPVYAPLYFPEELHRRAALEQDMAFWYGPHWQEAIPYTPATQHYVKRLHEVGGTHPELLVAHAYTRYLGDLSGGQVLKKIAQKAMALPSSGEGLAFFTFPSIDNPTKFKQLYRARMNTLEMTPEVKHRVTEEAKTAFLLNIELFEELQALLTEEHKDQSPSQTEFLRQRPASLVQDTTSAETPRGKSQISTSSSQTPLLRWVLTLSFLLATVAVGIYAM
Method: The new HO-1/σRs hybrids 1–4 were tested to evaluate their HO-1 inhibitory activity. The enzyme was obtained from the microsomal fractions of rat spleen. Determination of HO-1 activity was performed by measuring the bilirubin formation using the difference in absorbance at 464–530 nm, as reported in the experimental section. Compounds LS/0, LS4/28, LS6/42 and azalanstat were used as reference substances. We focused our attention on HO-1, since only this inducible isoform is involved in tumorigenesis and in tumor progression.
Microsomal fractions obtained from rat spleen were used as sources of HO-1. Microsomal preparations obtained by differential centrifugation, were selected in order to use the most native (i.e., closest to in vivo) forms of HO-1. The experiments reported in the present paper complied with current Italian law and met the guidelines of the Institutional Animal Care and Use Committee of Ministry of Health (Directorate General for Animal Health and Veterinary Medicines) (Italy). The experiments were performed in male Sprague–Dawley albino rats (150 g body weight and age 45 d). They had free access to water and were kept at room temperature with a natural photo-period (12 h light, 12 h dark cycle). For measuring HO-1 activities, each rat was sacrificed and their spleens were excised and weighed. A homogenate (15%, w/v) of spleens pooled from four rats was prepared in ice-cold HO-homogenizing buffer (50 mM Tris buffer, pH 7.4, containing 0.25 M sucrose) using a Potter–Elvehjem homogenizing system with a Teflon pestle. The microsomal fraction of rat spleen homogenate was obtained by centrifugation at 10,000× g for 20 min at 4 °C, followed by centrifugation of the supernatant at 100,000× g for 60 min at 4 °C. The 100,000g pellet (microsomes) was resuspended in an 100 mM potassium phosphate buffer, pH 7.8, containing 2 mM MgCl2 with a Potter–Elvehjem homogenizing system. The rat spleen microsomal fractions were divided into equal aliquots, placed into microcentrifuge tubes, and stored at −80 °C for up to 2 months.
Biliverdin reductase was obtained from liver cytosol. Rat liver was perfused through the hepatic portal vein with cold 0.9% NaCl, then it was cut and flushed with 2 × 20 mL of ice-cold PBS to remove all of the blood. Liver tissue was homogenized in 3 volumes of solution containing 1.15% KCl w/v and Tris buffer 20 mM, pH 7.8 on ice. Homogenates were centrifuged at 10,000× g, for 20 min at 4 °C. Supernatant was decanted and centrifuged at 100,000× g for 1 h at 4 °C to sediment the microsomes. The 100,000× g supernatant was saved and then stored in small amounts at −80 °C after its protein concentration was measured.
The HO-1 activities were determined by measuring the bilirubin formation using the difference in absorbance at 464–530 nm. Reaction mixtures (500 µL) contained 20 mM Tris–HCl, pH 7.4, (1 mg/mL) microsomal extract, 0.5–2 mg/mL biliverdin reductase, 1 mM NADPH, 2 mM glucose 6-phosphate (G6P), 1 U G6P dehydrogenase, 25 μM hemin, and 10 µL of DMSO (or the same volume of DMSO solution of test compounds to a final concentration of 100, 10, and 1 µM). Samples were incubated for 60 min at 37 °C in a circulating water bath in the dark. Reactions were stopped by adding the same volume of chloroform. After recovering the chloroform phase, the amount of bilirubin formed was measured with a double-beam spectrophotometer as OD464–530 nm (extinction coefficient, 40 mM/cm^−1 for bilirubin). […]

σ1R = target: T2, σ1R (Cavia porcellus, UniProt Q60492); assay: σ1R radioligand binding assay, [3H](+)-pentazocine, guinea pig brain cortex membranes; settings: for inhibition at 10 µM: read-out: σ1R % of inhibition at 10 μM
T2 construct: The thawed membrane preparation of guinea pig brain cortex was incubated with increasing concentrations of test compounds; from tissue; host or cells: brain cortex membranes of male Dunkin-Hartley guinea pigs (animals from ENVIGO RMS S.R.L.)
T2 sequence (Q60492 whole entry): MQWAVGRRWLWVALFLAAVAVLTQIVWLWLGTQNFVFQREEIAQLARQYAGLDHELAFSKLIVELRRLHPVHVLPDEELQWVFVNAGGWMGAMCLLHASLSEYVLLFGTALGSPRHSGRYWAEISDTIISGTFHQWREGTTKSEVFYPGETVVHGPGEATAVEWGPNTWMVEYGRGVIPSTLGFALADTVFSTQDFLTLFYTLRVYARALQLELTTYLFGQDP
Method: (§1) All new synthesized HO-1/σ hybrids 1–4 were evaluated for affinity at both the σ1R and the σ2R, through radioligand binding assay.
(§2) Brain and liver homogenates for σ1R and σ2R binding assays were prepared from male Dunkin–Hartley guinea pigs and Sprague–Dawley rats, respectively, (ENVIGO RMS S.R.L., Udine, Italy) as previously reported [54]. In vitro σ1R ligand binding assays were carried out in Tris buffer (50 mM, pH 7.4) for 150 min at 37 °C. […] Bound and free radioligand were separated by fast filtration under reduced pressure using a Millipore filter apparatus through Whatman GF 6 glass fiber filters, which were presoaked in a 0.5% poly(ethyleneimine) water solution. Each filter paper was rinsed three times with ice-cold Tris buffer (50 mM, pH 7.4), dried at rt, and incubated overnight with scintillation fluid into pony vials. The bound radioactivity has been determined using a liquid scintillation counter (Beckman LS 6500) [55]. In vitro σ2R ligand binding assays were carried out in Tris buffer (50 mM, pH 8.0) for 120 min at rt. […] Bound and free radioligand were separated by fast filtration under reduced pressure using a Millipore filter apparatus through Whatman GF 6 glass fiber filters, which were presoaked in a 0.5% poly(ethyleneimine) water solution. Each filter paper was rinsed three times with ice-cold Tris buffer (10 mM, pH 8), dried at rt, and incubated overnight with scintillation fluid into pony vials. The bound radioactivity was determined using a liquid scintillation counter (Beckman LS 6500) [56]. The Ki-values were calculated with the program GraphPad Prism® 7.0 (GraphPad Software, San Diego, CA, USA). The Ki-values are given as mean value ± SD from at least two independent experiments performed in duplicate.

σ2R [1] = target: T3, σ2R (Rattus norvegicus, UniProt Q5U3Y7); assay: σ2R radioligand binding assay, [3H]DTG, rat liver membranes
T3 construct: from tissue; host or cells: liver membranes of Sprague-Dawley rats (animals from ENVIGO RMS S.R.L.)
T3 sequence (Q5U3Y7 1-176): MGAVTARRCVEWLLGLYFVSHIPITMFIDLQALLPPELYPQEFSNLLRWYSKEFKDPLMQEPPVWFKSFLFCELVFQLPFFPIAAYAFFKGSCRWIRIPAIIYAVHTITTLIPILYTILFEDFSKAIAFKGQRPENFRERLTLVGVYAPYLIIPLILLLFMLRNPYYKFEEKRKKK
Method: as §1, §2

U87MG cells = assay: MTT cell viability assay, U87MG cells; type: cell-based, human; settings: for effect on U87MG cell viability (in words): U87MG, 1, 10 and 50 μM; for effect of co-administration on U87MG cell viability (in words): 10 μM σR ligand plus 10 μM HO-1 inhibitor, compared with σR ligand alone
Method: In particular, we used the human glioblastoma cell line U87MG (ATCCC number #HTB-14) and the prostate cancer cell line DU145 (ATCC HTB-81). These cell lines were obtained from the American Type Culture Collection (ATCC, Rockville, Md., USA). Cells were cultured in Dulbecco’s modified Eagle’s medium (DMEM) supplemented with 10% of heat-inactivated fetal bovine serum (FBS), 100 U/mL penicillin and 100-μg/mL streptomycin (Sigma-Aldrich, Steinheim, Germany) and incubated at 37 °C in a humidified atmosphere with 5% CO2.
The cytotoxicity of HO-1 inhibitors and σR ligands previous synthesized compounds as well as novel HO-1/σR hybrids compounds were evaluated. The effect on cell viability was assessed by performing MTT assay. Cells were seeded into 96-well plates at a density of 7.0 × 10^3 cells/well in 100 µL of culture medium. The day after, cells were treated with each molecule at three different concentrations (1 µM, 10 µM and 50 µM) for 72 h. Following treatments, 0.5 mg/mL of 3-[4,5-dimethylthiazol-2-yl]-2,5-diphenyltetrazolium bromide (MTT) (Sigma-Aldrich) was added to each well and incubated for 4 h at 37 °C. Finally, dimethyl-sulfoxide (DMSO) was used to dissolve formazan salts and absorbance was measured at 450 nm in a microplate reader (Biotek Synergy-HT). Six replicate wells were used for each group.

HO-2 = system: HO-2; parameters: method as in PMID 29783634, PMID 23867390, PMID 32056044, PMID 32168943, PMID 32222619; settings: Figure 1, previously demonstrated; cited from earlier work
σ2R [2] = target: T3, σ2R; settings: Table S1; ref [4, 5] of the supplement; cited from earlier work
DU145 cells = assay: MTT cell viability assay, DU145 cells; type: cell-based, human; settings: DU145, single compound 10 μM, 72 h
Description: In some types of human prostate and brain cancers, both HO-1 and σRs are overexpressed, influencing cancer cell proliferation. Consequently, σR ligands and HO-1 inhibitors may have anticancer activity. Literature data highlight the potential antiproliferative activity of various σ1R ligands in highly diffusive glioblastoma and prostate cancer cells, likely by interfering with the progression of cell cycle and decreasing the migration of cancer cells. Likewise, HO-1 inhibition hinders cancer progression, mainly by decreasing CO-mediated angiogenesis and disrupting the antioxidant HO-1 activity. […] Cytotoxicity of all new and previous synthesized compounds were evaluated in vitro via MTT assay. The cell viability of DU145 and U87-MG cells was assessed after 72 h of continuous treatment with all tested compounds, at the concentrations of 1, 10, and 50 μM. […]
The cytotoxicity of HO-1 inhibitors and σR ligands previous synthesized compounds as well as novel HO-1/σR hybrids compounds were evaluated. The effect on cell viability was assessed by performing MTT assay. […] Finally, dimethyl-sulfoxide (DMSO) was used to dissolve formazan salts and absorbance was measured at 450 nm in a microplate reader (Biotek Synergy-HT). […]

Structure (SMILES)	IC50 (HO-1) [µM]	Ki (σ1R) [µM]	inhibition at 10 µM (σ1R) [%]	Ki (σ2R [1]) [µM]	inhibition at 10 µM (σ2R [1]) [%]	effect on U87MG cell viability (in words) (U87MG cells; 72 h, MTT)	IC50 (HO-2) [µM]	further results
O=C(Cc1ccc(OCCCCn2ccnc2)cc1)N1CCN(Cc2ccccc2)CC1 [Compound 2, 2-(4-(4-(1H-imidazol-1-yl)butoxy)phenyl)-1-(4-benzylpiperazin-1-yl)ethan-1-one]	216 ± 3.6	> 10	73	> 10	67	reduced U87MG cell viability at all concentrations, especially at 50 μM		
OC(Cn1ccnc1)c1ccc(CCc2ccc(Br)cc2)cc1 (stereo not shown) [LS6/42]							> 100	reduction of cellular viability (U87MG cells; U87MG, single compound 10 μM, 72 h, MTT): about 50%
Brc1cccc(OCCCCn2ccnc2)c1 [LS/0]						significantly reduce cell viability only at 50 μM	2.2 ± 0.2	
O=C(CCCc1ccc(OCCCCn2ccnc2)cc1)N1CCN(Cc2ccccc2)CC1 [Compound 4, 4-(4-(4-(1H-imidazol-1-yl)butoxy)phenyl)-1-(4-benzylpiperazin-1-yl)butan-1-one]	87.7 ± 1.3	> 10	55	4.62		reduced U87MG cell viability at all concentrations, especially at 50 μM		IC50 HO-1 (HO-1): the most potent compound among the series
COc1ccc(CN2CCN(C(=O)CCc3ccccc3)CC2)cc1 [RFB/13]						significantly reduce cell viability only at 50 μM		effect of co-administration on U87MG cell viability (in words) (U87MG cells; U87MG): significantly reduced for compound RFB/13 only when combined with LS4/28 or LS6/42
O=C(c1ccc(OCCCCn2ccnc2)cc1)N1CCN(Cc2ccccc2)CC1 [Compound 1, (4-(4-(1H-imidazol-1-yl)butoxy)phenyl)(4-benzylpiperazin-1-yl)methanone]	230 ± 5.1	> 10	90	> 10	54	reduced U87MG cell viability at all concentrations, especially at 50 μM		
COc1ccc(CN2CCN(C(=O)CCC3CCCCC3)CC2)cc1 [SI1/13]						high efficacy in downregulation of cell viability		effect of co-administration on U87MG cell viability (in words) (U87MG cells; U87MG): increased by the addition of all the tested HO-1 inhibitors; Ki (σ2R [2]): 1.42 µM
OC(Cn1ccnc1)c1cccc(-c2ccccc2)c1 (stereo not shown) [LS4/28]						did not affect U87MG cell viability	> 100	
O=C(CCCN1CCC(O)(c2ccc(Cl)cc2)CC1)c1ccc(F)cc1 [Haloperidol, haloperidol]						high efficacy in downregulation of cell viability		reduction of cell viability (DU145 cells): about 50%
O=C(CCc1ccc(OCCCCn2ccnc2)cc1)N1CCN(Cc2ccccc2)CC1 [Compound 3, 3-(4-(4-(1H-imidazol-1-yl)butoxy)phenyl)-1-(4-benzylpiperazin-1-yl)propan-1-one]	162 ± 1.8	> 10	78	> 10	66	less efficacy than the control at 1 μM		
